The experiment has as its target T1, FmlHLD (Escherichia coli, UniProt P77588).
T1 construct: 6xHis (C); made in house; host or cells: E. coli C600, periplasm, pTRC99a
The experiment is described as follows: biochemical. The experiment is classed as binding, E. coli. The note with it: for PI100 (percent inhibition): galactoside at 100 μM; for % Inhibition at [μM] [100]: compound at 100 μM; for inhibitory potency against FmlH, in words: ELISA-based competition assay. The method, then:
Thereafter, wells were incubated with 200 μl blocking buffer (PBS+1% BSA) for 2 hours at 23° C., followed by incubation with 100 μl biotinylated FmlHLD diluted in blocking buffer to 20 μg/ml in the presence or absence of the tested compounds for 1 hr at 23° C. After washing 3× with PBS+0.05% TWEEN-20, 100 μl Streptavidin-HRP conjugate (BD Biosciences; 1:2000 dilution in blocking buffer) was added to each well for 1 hr at 23° C. After a final round of washing, plates were developed with 100 μl Tetramethylbenzidine (TMB, BD Biosciences) substrate, quenched within 1-2 min with 50 μl […], and absorbance measured at 450 nm.
Select top hit compounds and few low-scoring analogs from the virtual screening, as well as synthetic galactosides, were tested in the ELISA-based competition assay for their ability to inhibit binding of FmlHLD to ds-BSM. The ELISA assay was performed using the protocol described in Example 18. […] All compounds were tested at 100 μM; a subset was tested at 10 μM; and the strongest subset was additionally tested at 1 μM. […] Percent inhibition (PI) values are reported as the mean with standard error of the mean for galactosides tested at 100 μM (PI100), 10 μM (PI10), and 1 μM (PI1) in the ELISA-based competition assay. […] The “thio” designation indicates a sulfur linkage between the sugar and the aglycone group, the “phospho” designation indicates a phosphate group attached the C6-hydroxyl group on the sugar, and the “uro” designation indicates galacturonide as the sugar.
The ELISA assay was performed using the protocol described in Example 18. All compounds were tested at 1 μM and a subset was additionally tested at 100 nM. Average percent inhibition (PI) values are reported for compounds tested at 1 μM (PI1) and 100 nM (PI0.1).
Briefly, 1 μg bovine submaxillary mucin (Sigma) in 100 uL PBS were incubated with Immulon 4HBX 96-well plates overnight prior to treatment with 1 mU Arthrobacter ureafaciens sialidase for 1 hour at 37° C. to remove terminal sialic acid sugars. Wells were then blocked with 200 μL PBS+1% BSA for 2 hours at room temperature. Biotinylated FmlH^LD was diluted to 20 μg/mL in blocking buffer and incubated in the presence or absence of compounds serially diluted 2× down eight rows for 1 hour at room temperature. Wells were washed three times with PBS 0.05% TWEEN-20 then incubated with 100 μL of streptavidin-HRP conjugate (BD Biosciences; 1:2,000 dilution in blocking buffer) for one hour. After three additional PBS+0.05% TWEEN washes, plates were developed with 100 μL of tetramethylbenzidine (BD Biosciences) substrate and quenched with 50 μL of 1 M H2SO4. Total bound portion concentration was measured by the absorbance at 450 nm. IC50s were determined using the Graphpad Prism software.
The compounds synthesized herein were tested in the ELISA-based competition assay for their ability to inhibit binding of FmlHLD to ds-BSM. The ELISA assay was performed using the protocol described in Example 18. Compounds were tested at […], 1 μM, and 100 nM. as indicated on the table. […] ND means the corresponding value was not determined for this summary (but may be available elsewhere in the Examples).
A general note: ELISA stands for enzyme-linked immunosorbent assay.

Where [1] appears, read: inhibition of FmlHLD binding to ds-BSM.
The mark [2] stands for this setting: mean with standard error of the mean, 100 µM.
Setting [3] is: read-out: PI100 (percent inhibition), galactoside at 100 μM, mean with standard error of the mean.
Setting [4] is: read-out: % Inhibition at [μM] [1], compound at 1 μM, inhibition of FmlHLD binding to ds-BSM.
Where [5] appears, read: read-out: % Inhibition at [μM] [10], compound at 10 μM, inhibition of FmlHLD binding to ds-BSM.
Where [6] appears, read: read-out: % Inhibition at [μM] [100], compound at 100 μM, inhibition of FmlHLD binding to ds-BSM.
The mark [7] stands for this setting: IC50, inhibition of FmlHLD binding to ds-BSM.
Setting [8] is: IC50 (μM), Table 5, Gal and GalNAc inhibition of FmlH.
Where [9] appears, read: read-out: PI(1) (average percent inhibition), compound at 1 μM, Table 4.
Setting [10] is: read-out: PI10 (percent inhibition), galactoside at 10 μM, mean with standard error of the mean.
Where [11] appears, read: read-out: PI1 (percent inhibition), galactoside at 1 μM, mean with standard error of the mean.

Where two headings read alike, the source gives them in different places.

T1 sequence (P77588 25-182): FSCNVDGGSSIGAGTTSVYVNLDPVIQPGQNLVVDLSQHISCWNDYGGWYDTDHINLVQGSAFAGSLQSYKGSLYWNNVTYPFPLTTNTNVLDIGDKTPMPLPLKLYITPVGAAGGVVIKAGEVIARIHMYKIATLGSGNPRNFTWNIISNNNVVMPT

As for `CC(=O)N[C@H]1[C@H](Oc2ccc([N+](=O)[O-])cc2)O[C@H](CO)[C@@H](O)[C@@H]1O[C@@H]1O[C@H](CO)[C@H](O)[C@H](O)[C@H]1O` [Compound 34, p-nitrophenyl Gal-β1-3-GlcNAc, reference compound], the “PI100 (percent inhibition)” value (mean with standard error of the mean) is −3.6 ± 1.0%.

Broadly, the % Inhibition is the drop in the measured response relative to a control, in per cent. For `CC(=O)N[C@H]1[C@H](Oc2ccc([N+](=O)[O-])cc2)O[C@H](CO)[C@@H](O)[C@@H]1O[C@@H]1O[C@H](CO)[C@H](O)[C@H](O)[C@H]1O` [Gal-b1-3-PNPGlcNAc, reference compound], the “% Inhibition at [μM] [100]” value under setting [1] is given as −3.60%.

Take `O=[N+]([O-])c1ccc(O[C@@H]2O[C@H](CO[C@@H]3O[C@H](CO)[C@H](O)[C@H](O)[C@H]3O)[C@H](O)[C@H](O)[C@H]2O)cc1` [Gal-b1-6-PNPG, reference compound]: under setting [1], the “% Inhibition at [μM] [100]” value was found to be 19.41%.

For orientation: inhibition means the change of the read-out against control, counted positive when it falls. For the molecule `OC[C@H]1O[C@@H](Oc2c[nH]c3ccccc23)[C@H](O)[C@@H](O)[C@H]1O` [Compound 16β], the “PI100 (percent inhibition)” value under setting [2] was 21.7 ± 2.4%. Under setting [3], the inhibition at 100 µM amounted to 22%.

For `Cc1ccc(O[C@@H]2O[C@H](CO)[C@H](O)[C@H](O)[C@H]2O)cc1` [Compound 153a], the inhibition at 1 µM under setting [4] worked out at 4.59%. Besides, under setting [5], the inhibition at 10 µM is 16.5%. For the same molecule, the inhibition at 100 µM under setting [6] turned out to be 85.8%.

Usually IC50 stands for the concentration at which inhibition is half-maximal. On to `COc1cccc(O[C@@H]2O[C@H](CO)[C@H](O)[C@H](O)[C@H]2NC(C)=O)c1-c1cccc(NS(C)(=O)=O)c1` [AM2082], for which the IC50 under setting [7] came out at 0.151 µM.

With `CC(=O)N[C@H]1[C@H](Oc2ccccc2-c2cccc(C(F)(F)F)c2)O[C@H](CO)[C@H](O)[C@@H]1O` [AM2037, N-((2S,3R,4R,5R,6R)-4,5-dihydroxy-6-(hydroxymethyl)-2-((3′-(trifluoromethyl)-[1,1′-biphenyl]-2-yl)oxy)tetrahydro-2H-pyran-3-yl)acetamide], the “inhibitory potency against FmlH, in words” value is listed as “equal or slightly reduced potency”. This molecule returned a concentration for half-maximal inhibition (IC50) under setting [8] of 1.51 µM. In addition, under setting [4], the inhibition at 1 µM is 15.7%. Further, under setting [9], the inhibition at 1 µM turned out to be 15.7%.

As for `OC[C@H]1O[C@@H](Oc2ccccc2)[C@H](O)[C@@H](O)[C@H]1O` [Compound 1β, phenyl β-galactoside], the “PI100 (percent inhibition)” value under setting [2] turned out to be 76.9 ± 0.4%. In addition, the inhibition at 10 µM under setting [10] came out at 15.5 ± 4.2%. In addition, the inhibition at 100 µM under setting [3] was determined as 77%.

On to `O=[N+]([O-])c1ccc(S[C@@H]2O[C@H](CO)[C@H](O)[C@H](O)[C@H]2O)cc1` [PNPTG, reference compound], for which the inhibition at 10 µM under setting [5] was 17%. Besides, the inhibition at 100 µM under setting [6] was determined as 72.5%.

Take `OC[C@H]1O[C@@H](Oc2cccc3ccncc23)[C@H](O)[C@@H](O)[C@H]1O` [EXW020a]: the inhibition at 100 µM under setting [6] came out at 15.2%.

As to `O=[N+]([O-])c1ccccc1O[C@@H]1O[C@H](CO)[C@H](O)[C@H](O)[C@H]1O` [ONPG, o-nitrophenyl β-galactoside, reference compound], the inhibition at 1 µM under setting [4] amounted to 14.2%. In addition, the inhibition at 10 µM under setting [5] worked out at 31.1%. Also, the inhibition at 100 µM under setting [6] worked out at 93%. Moreover, the “inhibition of FmlHLD binding to ds-BSM, in words” value (soluble compound at 100 μM (0.1 mM)) is “more effectively than Gal, GalNAc, or TF”.

`CC(=O)N[C@H]1[C@H](Oc2ccccc2-c2cc(C(=O)O)cc([N+](=O)[O-])c2)O[C@H](CO)[C@H](O)[C@@H]1O` [AM2119] gave an IC50 under setting [7] of 1.72 µM.

Turning to `CC(=O)N[C@H]1[C@H](Oc2ccccc2-c2cccc(CO)c2)O[C@H](CO)[C@H](O)[C@@H]1O` [AM2064, N-((2S,3R,4R,5R,6R)-4,5-dihydroxy-6-(hydroxymethyl)-2-((3′-(hydroxymethyl)-[1,1′-biphenyl]-2-yl)oxy)tetrahydro-2H-pyran-3-yl)acetamide], the “inhibitory potency against FmlH, in words” value is “equal or slightly reduced potency”. This molecule registered an IC50 under setting [8] of 0.63 µM. In addition, the inhibition at 0.1 µM (read-out: % Inhibition at [μM] [0.1], compound at 0.1 μM (100 nM), inhibition of FmlHLD binding to ds-BSM) is 2%. Besides, the inhibition at 1 µM under setting [4] came to 38.9%. Under “read-out: PI (0.1) (average percent inhibition), compound at 100 nM, Table 4”, the inhibition at 0.1 µM worked out at 2%. Also, the inhibition at 1 µM under setting [9] is 38.9%.

In the case of `OC[C@H]1O[C@@H](Oc2cccc3ccncc23)[C@H](O)[C@@H](O)[C@H]1O` [Compound 21β, 8-isoquinolinyl β-D-galactopyranoside], under setting [2], the “PI100 (percent inhibition)” value is recorded as 15.2 ± 7.1%. The inhibition at 100 µM under setting [3] came to 15%.

With `Cc1ccccc1O[C@@H]1O[C@H](CO)[C@H](O)[C@H](O)[C@H]1O` [Compound 135b], under setting [4], the inhibition at 1 µM was found to be 1.81%. Besides, the inhibition at 10 µM under setting [5] stood at 28.2%. The inhibition at 100 µM under setting [6] was found to be 87.3%.

As to `COc1cc(-c2[o+]c3cc(O)cc(O)c3cc2O[C@@H]2O[C@H](CO)[C@H](O)[C@H](O)[C@H]2O)ccc1O` [PeoG, reference compound], under setting [6], the inhibition at 100 µM was 3.64%.

As to `Cc1c(C)c2ccc(O[C@@H]3O[C@H](CO)[C@H](O)[C@H](O)[C@H]3O)cc2oc1=O` [Compound D715-0293, reference compound], the inhibition at 1 µM under setting [4] is 10.2%. Moreover, the inhibition at 10 µM under setting [5] came out at 19.8%. In addition, the inhibition at 100 µM under setting [6] is 89.2%.

Take `CC(=O)N[C@H]1[C@H](Oc2ccc3ccncc3c2)O[C@H](CO)[C@H](O)[C@@H]1O` [AM2002, N-((2S,3R,4R,5R,6R)-4,5-dihydroxy-6-(hydroxymethyl)-2-(isoquinolin-7-yloxy)tetrahydro-2H-pyran-3-yl)acetamide]: the inhibition at 1 µM by setting is: under setting [4], 20.2%; under setting [9], 20.2%.

Under “IC50 (μM), Table 6, sulfonamides 3078-3090”, `CC(=O)N[C@@H]1[C@H](Oc2cccc(C(=O)O)c2-c2cccc(NS(C)(=O)=O)c2)OC(CO)[C@H](O)[C@@H]1O` (stereo partly drawn) [Compound 3082, 6-(((2S,3S,4R,5R)-3-acetamido-4,5-dihydroxy-6-(hydroxymethyl)tetrahydro-2H-pyran-2-yl)oxy)-3′-(methylsulfonamido)-[1,1′-biphenyl]-2-carboxylic acid] gave an IC50 of 0.13 µM.

Consider `OC[C@H]1O[C@@H](Oc2ccc3ccccc3c2)[C@H](O)[C@@H](O)[C@H]1O` [Compound 19β], for which the “PI100 (percent inhibition)” value under setting [2] came to 78.8 ± 2.1%. Further, under setting [10], the inhibition at 10 µM turned out to be 14.6 ± 3.1%. Further, the inhibition at 100 µM under setting [3] amounted to 79%.

Consider `O=c1c(O[C@@H]2O[C@H](CO)[C@H](O)[C@H](O)[C@H]2O)c(-c2cc(O)c(O)c(O)c2)oc2cc(O)cc(O)c12` [MyrG, reference compound], for which, under setting [6], the inhibition at 100 µM is 10.8%.

On to `N#Cc1ccc(O[C@@H]2O[C@H](CO)[C@H](O)[C@H](O)[C@H]2O)cc1` [Compound 9β, 4-cyanophenyl β-D-galactopyranoside], for which the “PI100 (percent inhibition)” value under setting [2] worked out at 85.7 ± 1.6%. Also, under setting [11], the inhibition at 1 µM amounted to 9.5 ± 3.7%. The inhibition at 10 µM under setting [10] was 19.2 ± 4.8%. Further, the inhibition at 100 µM under setting [3] turned out to be 86%.

Turning to `O=[N+]([O-])c1cccc(-c2ccccc2O[C@@H]2O[C@H](CO)[C@H](O)[C@H](O)[C@H]2O)c1` [AM3049], under setting [7], the IC50 is 15 µM.

Turning to `OC[C@H]1O[C@@H](Oc2ccccc2-c2ccccc2)[C@H](O)[C@@H](O)[C@H]1O` [Compound 28β, [1,1′-biphenyl]-2-yl α/β-D-galactopyranoside], the “PI100 (percent inhibition)” value under setting [2] is 91.1 ± 1.2%. The inhibition at 1 µM under setting [11] came out at 8.1 ± 6%. Moreover, under setting [10], the inhibition at 10 µM was 31 ± 2.1%. Besides, the inhibition at 100 µM under setting [3] turned out to be 91%.

For the origin of these results see patent US11773127B2, “Compounds and methods for treating bacterial infections” (Washington University, priority 2017, dated 2023).
